Key:
[1] = tested on: stratum corneum; experiment: Influence on stratum corneum of skin (FTIR); parameters: species or system pig; conditions: for Absorbance; CH2 asymmetric / Absorbance; CH2 symmetric / shift (cm^−1), CH2 asymmetric / shift (cm^−1), CH2 symmetric / shift (intensity), CH2 asymmetric / shift (intensity), CH2 symmetric: stratum corneum lipid; for Absorbance; CH2 asymmetric / Absorbance; CH2 symmetric / Absorbance; C═O amide-II / Absorbance; NH—C═O amide-I: FTIR, 30 minutes immersion; for shift (cm^−1), CH2 asymmetric / shift (cm^−1), CH2 symmetric / shift (intensity), CH2 asymmetric / shift (intensity), CH2 symmetric / shift (cm^−1), C═O amide-II / shift (cm^−1), NH—C═O amide-I / shift (intensity), C═O amide-II / shift (intensity), NH—C═O amide-I: versus untreated control; for Absorbance; C═O amide-II / Absorbance; NH—C═O amide-I / shift (cm^−1), C═O amide-II / shift (cm^−1), NH—C═O amide-I / shift (intensity), C═O amide-II / shift (intensity), NH—C═O amide-I: stratum corneum protein
Description: Frozen skin of a pig (YMPC, Hoshino Test Animal Breeding Co., Ltd.) was returned to room temperature, dried skin was warmed at 60° C. for from 60 to 120 seconds, and the epidermal layer was peeled from the skin. […] The isolated stratum corneum was washed with water and dried for an additional 24 hours. Sections of stratum corneum were immersed in test samples (IPM, Ionic Liquids 1, 2, 4, tween-80, DGME or PBS) in glass tubes for 30 minutes at room temperature. Stratum corneum sheets were washed with 20% ethanol and dried for 1 hour. The stratum corneum sheets were analyzed by Fourier transform infrared spectroscopy (FTIR) spectroscopy. Untreated stratum corneum was used as a control.

[2] = Evaluation of solubility of ionic liquids in a variety of solvents (visual); format: physicochemical; conditions: 50:50 by weight, room temperature
Description: The solubility of ionic liquids in a variety of solvents was evaluated at room temperature. Specifically, Ionic Liquids 1 to 3 were placed in a glass tube with respective solvents and mixed by stirring with a vortex mixer for from 1 to 2 minutes. The ratio of Ionic Liquids 1 to 3 to the corresponding solvents was 50:50 by weight. The solubility and transparency of the obtained liquids (liquid samples) were visually observed and evaluated according to the following criteria.
∘: Ionic liquid is dissolved uniformly and the clarity of the liquid sample is high
Δ: Ionic liquid is uniformly dissolved, but liquid sample is cloudy
×: Ionic liquid and solvent are separated, and the ionic liquid is not dissolved in the solvent. The same evaluation was performed for intermediate 2 ([EDMPC][Cl]) as a comparison.

Compound | Absorbance; CH2 asymmetric [1] [cm⁻¹] | Absorbance; CH2 symmetric [1] [cm⁻¹] | shift (cm^−1), CH2 asymmetric [1] [cm⁻¹] | shift (cm^−1), CH2 symmetric [1] [cm⁻¹] | shift (intensity), CH2 asymmetric [1] | shift (intensity), CH2 symmetric [1] | Absorbance; C═O amide-II [1] [cm⁻¹] | Absorbance; NH—C═O amide-I [1] [cm⁻¹] | shift (cm^−1), C═O amide-II [1] [cm⁻¹] | shift (cm^−1), NH—C═O amide-I [1] [cm⁻¹] | shift (intensity), C═O amide-II [1] | shift (intensity), NH—C═O amide-I [1] | Solubility and transparency in Dimethyl sulfoxide ([2]; solvent Dimethyl sulfoxide) | Solubility and transparency in Ethanol ([2]; solvent Ethanol) | Solubility and transparency in Isopropyl alcohol ([2]; solvent Isopropyl alcohol) | Solubility and transparency in Isopropyl myristate ([2]; solvent Isopropyl myristate)
CCOCCOCCO [DGME, diethylene glycol monoethyl ether] | 2918 | 2853 | 0 | 2 | 2.37 | 1.25 | 1648 | 1541 | 1 | 4 | 18.00 | 14.31 | – | – | – | –
CCCCCCCCCCCCCC(=O)OC(C)C [IPM, isopropyl myristate] | 2920 | 2853 | 2 | 2 | 1.72 | 1.08 | 1648 | 1539 | 1 | 2 | 13.95 | 10.59 | – | – | – | –
CCCCCCCCCCCCCC(=O)OC[C@H](COP(=O)(OCC)OCC[N+](C)(C)C)OC(=O)CCCCCCCCCCCCC (stereo partly shown) [Intermediate 2, EDMPC chloride] | – | – | – | – | – | – | – | – | – | – | – | – | ◯ | ◯ | ◯ | ◯
tween-80 | 2920 | 2853 | 2 | 2 | 2.80 | 1.30 | 1648 | 1542 | 1 | 5 | 19.01 | 16.14 | – | – | – | –
